Patent publication US20250163459A1, “IMPROVED CELL LINES AND METHODS FOR THE PRODUCTION OF ADENO-ASSOCIATED VECTORS” (CEVEC PHARMACEUTICALS GMBH, priority 2022, published 2025)

Key:
Assay type in all cases: cell-based, human
CAP cells [1] = experiment: Encapsidated host cell DNA in AAV particles, ALU qPCR, CAP-derived producer cells; conditions: for encapsidated hcDNA: 30 μM and 60 μM, compared to vehicle treated controls (DMSO)
Protocol: (§1) At different time points post transfection, cell suspension was harvested, and cells were lysed by addition of Triton-X 100 (Sigma). After centrifugation, supernatants were diluted and incubated with TurboDNase (ThermoFisher Scientific), in order to remove non-encapsidated DNA contaminants. After inactivation of TurboDNAse, proteinase K was added to digest the viral capsid and subsequently amplify viral genomic DNA or hcDNA via ddPCR or qPCR.
(§2) The following primer/dual-labelled probe combinations (ordered at MWG, Eurofins and IDT, respectively, Table 1) directed against • a) the SV40 PolyA (quantification of viral titer) or • b) Alu sequences (quantification of hcDNA) • were used:
(§3) As standard for the viral genome, linearized transgene plasmid with a defined copy number was used. As standard for the hcDNA assay previously isolated CAP and HEK293 DNA (purified with DNeasy® Blood & Tissue Kit) was used.
AAV samples were treated with Turbo DNAse (Thermo Fischer Scientific) to digest the non-encapsidated DNA before the capsids were digested using Proteinase K. Proteinase K was inactivated by a heating step at 95° C. for 15 min. The samples were measured either by qPCR or ddPCR as follows:
The qPCR reaction contained the following components: 2×Brilliant Multiplex qPCR Master Mix (Agilent), nuclease-free H2O (Thermo Fisher Scientific), primer/probe mix and sample/standard. qPCR was run on an LightCycler 480 according to the manufacturer's instructions.
(§4) • Z-VAD-fmk inhibits caspases 3 and 8 which are upstream of the apoptotic nucleases DFF40 and ENDOG, respectively. • Z-VAD-fmk treatment should therefore reduce chromosomal fragmentation and decrease amount of packageably sized AAV cargo. • Transiently transfected CAP cells and HEK293 cells or full producers were cultured to produce AAV in the presence of absence of Z-VAD-fmk. • Resulting AAV particles were harvested from cell suspension on days 1, 2, 3, and 4 post induction. • Encapsidated host cell DNA was measured using a dedicated qPCR assay amplifying ALU repeats. • DNA fragmentation was determined using the DNA fragmentation assay by Chemometec.

CAP cell line = experiment: Viable cell density and viability of induced AAV producer cells; conditions: for viable cell density and viability: induced AAV producer cells, versus untreated cells, Camptothecin 10 μM
Protocol: During routine cultivation, cells were diluted with fresh medium to a viable cell density of 0.5-1×10^6 cells/ml every 72 to 96 h. Viable cell density and viability were determined by trypan blue exclusion using a Vi-Cell Blu cell counter (Beckman Coulter).
• Various stable and transient AAV producer cells were induced with doxycycline and treated with different concentrations of the antiapoptotic pan-caspase inhibitor Z-VAD-fmk. • Cell viability was evaluated using the NucleoCounter NC-3000.

CAP cells [2] = experiment: Sub-G1 DNA fragmentation assay (Chemometec, NucleoCounter NC-3000); conditions: during vector production; Camptothecin 10 μM over night on parental CAP cells
Description: A DNA fragmentation assay by Chemometec was applied using the NucleoCounter® NC-3000™ according to note No. 3003. Rev. 1.4.
In brief, cells were permeabilized with Ethanol, which allows low molecular weight DNA fragments (e.g., apoptotic DNA) to leak out, while large fragments and undamaged chromosomes are retained inside the nucleus. Total DNA content was stained by DAPI and detected using the NucleoCounter® NC-3000™. Here, cells typically fall into one of three clusters when plotted by signal intensity. The G1 peak represents the majority of cells with 2n DNA content. A second, smaller peak represents cells in G2 phase of the cell cycle, containing 4n. […]
as §4

HEK293 cells [3] = experiment: Encapsidated host cell DNA in AAV particles, ALU qPCR, HEK293 cells; conditions: up to 40 μg/ml, compared to untreated controls, transient transfection
Protocol: as §1, §2, §3
AAV samples were treated with Turbo DNAse (Thermo Fischer Scientific) to digest the non-encapsidated DNA before the capsids were digested using Proteinase K. Proteinase K was inactivated by a heating step at 95° C. for 15 min. The samples were measured either by qPCR or ddPCR as follows: […]

stable producer cells = experiment: Capsid levels by ELISA; conditions: in the presence of Z-VAD-fmk
Protocol: Inhibition of apoptotic DNA fragmentation reduces amount and packaging of hcDNA. • a) First page: sensitivity test for Sub-G1 DNA-fragmentation assay (Chemometec) using Camptothecin treatment (10 μM) on parental CAP cells over night. M1 population as % of global DNA stain. Second page: merged curves for apoptotic DNA fragmentation determined by same assay after 0 h (black curve), 18 h (dark grey), and 44 h (light grey), with Z-VAD-fmk (right) and in control samples (left, induction only) • b) First page: Relative share of encapsidated hcDNA [%] in transient and stable AAV8 production at 3 days post induction (transient transfection) and 5 days post induction (stable clone). […] Encapsidated hcDNA was measured in relation to the respective untreated controls, each set at 100%. Second page: fold difference of hcDNA concentration over time [hours] in an untreated AAV production using stable producer clone 1 (light grey line) normalized to 10 μg/ml of Z-VAD-fmk (dark grey line) determined by ALU qPCR. • c) First page: Relative Capsid levels determined by ELISA in stable producer clone 1 and transiently transfected HEK293 suspension cells at different Z-VAD-fmk concentrations and compared with Camptothecin. […] Second page: corresponding host cell DNA per capsid as determined by ALU qPCR normalized to untreated controls. […]

HEK293 cells [4] = experiment: Endpoint PCR for detection of encapsidated hcDNA; conditions: transiently transfected HEK293 wt cells, cargo 1 or cargo 3
Protocol: Encapsidated hcDNA was prepared as described. PCR setup involved 3 μl sample as template for an endpoint PCR with 40 cylces using Q5 High-Fidelity DNA polymerase (NEB) according to the manufacturer's instructions. PCR samples were analyzed on a 2% agarose gel.

Compound | encapsidated hcDNA (CAP cells [1]; stable inducible AAV producer cells, day 3 post induction) | encapsidated hcDNA (CAP cells [1]; stable inducible AAV producer cells, day 3 post induction, listed as SB 203580) | reduction of encapsidated hcDNA (CAP cells [1]; 60 μM, stable inducible AAV producer cells, compared to vehicle treated controls, day 3 post induction) | viable cell density and viability (CAP cell line) | amount of low molecular weight DNA (short DNA fragments) (CAP cells [2]) | increase in viability (CAP cell line; 80 h of treatment with 10 μg/ml, compared to untreated cells) [percentage points] | compensation of Camptothecin-reduced viability and VCD (CAP cell line; co-culturing, 10 μM Camptothecin+20 μM Z-VAD-fmk) | reduction in encapsidated hcDNA normalized to capsid levels (CAP cells [1]; stable producer cells, compared to controls) [fold] | packaging of host cell DNA (CAP cells [1]; up to 40 μg/ml, compared to untreated controls, fully transient approach and full producers) | packaging of host cell DNA (HEK293 cells [3]) | capsid levels (ELISA) (stable producer cells) | encapsidated hcDNA (genomic DNA sequence from HEK293 cells) (HEK293 cells [4])
C[S+]([O-])c1ccc(-c2nc(-c3ccc(F)cc3)c(-c3ccncc3)[nH]2)cc1 (centres unmarked) [Adezmapimod, 4-(4-fluorophenyl)-2-(4-methylsulfinylphenyl)-5-(4-pyridyl)-1H-imidazole] | reduced hcDNA encapsidation | reduces the encapsidated hcDNA | more than 75% | – | – | – | – | – | – | – | – | –
CC[C@@]1(O)C(=O)OCc2c1cc1n(c2=O)Cc2cc3ccccc3nc2-1 [Camptothecin] | – | – | – | reduced viability and VCD | increase in short DNA fragments | – | – | – | – | – | – | –
Z-Val-Ala-Asp fluoromethyl ketone [Z-VAD-fmk] | – | – | – | increased viable cell density and viability | reduced the amount of low molecular weight DNA | ~10 | could be compensated | ~10 | dramatically decreased packaging of host cell DNA | dramatically decreased packaging of host cell DNA | slightly increased | undetectable
